# PubChem BioAssay (NCI)
# “And” between values parts separate entries of the source, which are not always exact repeats. Equal entries are not always repeated.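 Tested at 5 concentrations; 48 h exposure; 96-well plates; endpoints linearly interpolated, else capped at highest concentration. GI50 is the concentration that inhibits growth by half. Definition used: TGI = concentration required for complete inhibition of growth.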
# Columns and labels:
# Test in all cases: inhibition of tumour cell growth, NCI panel, 48 h
# UACC-62 melanoma = tested on: UACC-62 melanoma
# DLD-1 colon = tested on: DLD-1 colon
# 786-0 renal = tested on: 786-0 renal
# NCI-H460 lung = tested on: NCI-H460 lung
# DMS 114 small cell lung = tested on: DMS 114 small cell lung
# MOLT-4 leukemia = tested on: MOLT-4 leukemia
# KM20L2 colon = tested on: KM20L2 colon
# CAKI-1 renal = tested on: CAKI-1 renal
# DU-145 prostate = tested on: DU-145 prostate
# HS 578T breast = tested on: HS 578T breast
Structure (SMILES),TGI (UACC-62 melanoma),TGI (DLD-1 colon),TGI (786-0 renal),TGI (NCI-H460 lung),TGI (DMS 114 small cell lung),TGI (MOLT-4 leukemia),TGI (KM20L2 colon),TGI (CAKI-1 renal),TGI (DU-145 prostate),TGI (HS 578T breast),GI50 (UACC-62 melanoma),GI50 (786-0 renal),GI50 (NCI-H460 lung),GI50 (DU-145 prostate),GI50 (MOLT-4 leukemia),GI50 (HS 578T breast),GI50 (CAKI-1 renal)
NC1=NN(c2ccccc2)C(=O)C1C(=O)C(=O)Nc1ccc(Cl)c(Cl)c1 (stereo unspecified),> 100 µM,> 100 µM,> 100 µM,> 100 µM,> 100 µM,> 100 µM,> 100 µM,> 100 µM,,,,,,,,,
Cc1cc(=O)n(-c2cc3cccccc-3n2)[nH]1,7.61 µM,> 100 µM,18 µM,16.1 µM,7.73 µM,> 100 µM,> 100 µM,,,,,,,,,,
Cc1cccc(C)c1N1C(=O)C(=O)C(c2nc3ccccc3s2)/C(=N\N)C1=O (stereo unspecified),> 100 µM,> 100 µM,> 100 µM,> 100 µM,> 100 µM,> 100 µM,> 100 µM,> 100 µM,,,,,,,,,
CCOc1ccccc1N=Nc1c(-c2ccccc2)nn(C(=O)CC(=O)Nc2cccc(C)c2)c1-c1ccccc1,> 100 µM,> 100 µM,> 100 µM,> 100 µM,> 100 µM,> 100 µM,> 100 µM,> 100 µM,,,,,,,,,
O=C(Nc1ccc(Cl)cc1Cl)OC(Cn1cncn1)c1ccc(Cl)cc1Cl (stereo unspecified),28.1 µM,35 µM,33.5 µM,,29.8 µM,> 100 µM,30.3 µM,,,,,,,,,,
COC(=O)C1=CC2C=CC(C1C(=O)OC)C1C(C(=O)OC)=C(C(=O)OC)C(C(=O)OC)=C(C(=O)OC)C21OC (stereo unspecified),> 100 µM,> 100 µM,> 100 µM,> 100 µM,> 100 µM,> 100 µM,> 100 µM,> 100 µM,,,,,,,,,
COc1ccc(OC)c(/C=N/N=C(\N)NO)c1,26.9 µM,> 100 µM,> 100 µM,> 100 µM,> 100 µM,,,71.4 µM,,,,,,,,,
CN(/N=C\c1ccnc2ccccc12)c1ccc([N+](=O)[O-])cc1,> 100 µM,,> 100 µM,,,> 100 µM,> 100 µM,> 100 µM,,,,,,,,,
COC(=O)C1C(=O)O[C@@H](c2cc(OC)c(OC)cc2OC)C1C(=O)OC (mixture of isomers),> 100 µM,> 100 µM,> 100 µM,> 100 µM,> 100 µM,> 100 µM,> 100 µM,> 100 µM,,,,,,,,,
COC1(OC)C2(Cl)C(Cl)=C(Cl)C1(Cl)C1C2C2CC1(C(=O)O)c1ccccc12 (stereo unspecified),34.8 µM,35.6 µM,31.6 µM,47.8 µM,39.9 µM,43.3 µM,62.8 µM,83.1 µM,,,,,,,,,
COC(=O)[C@@H]1Cc2c([nH]c3ccccc23)[C@H](c2ccccc2)N1,> 100 µM,> 100 µM,> 100 µM,> 100 µM,84 µM,> 100 µM,> 100 µM,> 100 µM,,,,,,,,,
CNS(=O)(=O)NNS(=O)(=O)c1ccc(OC)cc1,> 100 µM,> 100 µM,> 100 µM,> 100 µM,> 100 µM,> 100 µM,> 100 µM,> 100 µM,,,,,,,,,
Cc1cc(C)c(-c2noc(-c3ccc(Cl)cc3)c2C2=NCCCN2)c(C)c1,40.7 µM,> 100 µM,26.5 µM,28.8 µM,,41.7 µM,70.6 µM,> 100 µM,,,,,,,,,
COc1c(-c2ccccc2)nc2ccc(Oc3ccccc3)nn12,> 100 µM,> 100 µM,> 100 µM,> 100 µM,> 87.7 µM,> 64.7 µM,> 100 µM,> 100 µM,,,,,,,,,
O=C1/C(=C/c2ccc(Cl)cc2)CNC/C1=C\c1ccc(Cl)cc1,> 19.9 µM,6.78 µM,4.69 µM and 2.77 µM,,,,,5.98 µM and 3.82 µM,7.57 µM,> 41.7 µM,,,,,,,
O=C(NCC1CCCO1)c1ccc(NC2=C(Cl)C(=O)N(Cc3ccccc3)C2=O)cc1 (stereo unspecified),24.3 µM,,28.6 µM,46.5 µM,,> 100 µM,,3.34 µM,30 µM,65.3 µM,10800 nM,15200 nM,15500 nM,12300 nM,4490 nM,22100 nM,1790 nM
O=[N+]([O-])c1cc([N+](=O)[O-])c(Nn2c3ccccc3c3ccccc32)c([N+](=O)[O-])c1,5.67 µM and 1.59 µM,,13.1 µM and 15.9 µM,13 µM and 1.93 µM,,> 100 µM,,0.703 µM,20.1 µM and 18.7 µM,,338 nM,324 nM,342 nM,442 nM,110 nM,366 nM,238 nM
Cc1nc2c(o1)C(=Nc1ccccc1)c1nc(C)oc1C2=Nc1ccccc1,39.4 µM,67.9 µM,34.2 µM,> 100 µM,60.4 µM,72.6 µM,70 µM,,,,,,,,,,
O=C(/C=C/c1cccc([N+](=O)[O-])c1)c1ccc([N+](=O)[O-])cc1,> 100 µM,> 100 µM,> 100 µM,> 100 µM,,> 100 µM,> 100 µM,> 100 µM,,,,,,,,,
CC(=O)[C@H]1CCC/C=C/[C@@H]2C[C@H](O)C[C@H]2[C@H](O)/C=C/C(=O)O1,> 100 µM,,0.392 µM,> 100 µM,,,,> 23.3 µM,> 100 µM,> 100 µM,498 nM,193 nM,2670 nM,2990 nM,321 nM,2440 nM,645 nM
Oc1c(Cl)cc(Cl)c2ccc(Cn3cc(-c4ccc(C(F)(F)F)cc4)nn3)nc12,11.9 µM,,4.59 µM,37.3 µM,,8.8 µM,,2.97 µM,3.33 µM,8.44 µM,2610 nM,1820 nM,18900 nM,1700 nM,825 nM,2380 nM,1250 nM
Cc1cc(-c2cc(O)ccc2Cl)cc2nnc(Nc3ccc(OCCN4CCCC4)cc3)nc12,3.33 µM,,0.343 µM,1.12 µM,,0.634 µM,,2.97 µM,0.419 µM,3.83 µM,1700 nM,186 nM,579 nM,206 nM,251 nM,1540 nM,1540 nM
